Target: T1, adenosine A2a receptor (Homo sapiens, UniProt P29274)
T1 construct: expressed in transfected cells; host or cells: CHO cells, transient lipofection
Assay: Screening of adenosine A2a receptor antagonist using change in cAMP level as index
Assay type: cell-based
Conditions: 10 μM test substance with 10 μM adenosine, CHO cells with A2a receptor and Gm1, cAMP level
Method: Then, 10 μM of adenosine as a GPCR ligand and 10 μM of a test substance (DMPX) were added and incubated at 37° C. for 30 minutes.
A substance which gave a cAMP level percentage of 85% or less upon contact of the cell with the ligand and the test substance was selected as a signal transduction inhibitor (antagonist), on the basis of the cAMP level with no contact being 0% and the cAMP level with the contact of the cell only with the ligand being 100% (FIG. 4).

T1 sequence (P29274 whole entry): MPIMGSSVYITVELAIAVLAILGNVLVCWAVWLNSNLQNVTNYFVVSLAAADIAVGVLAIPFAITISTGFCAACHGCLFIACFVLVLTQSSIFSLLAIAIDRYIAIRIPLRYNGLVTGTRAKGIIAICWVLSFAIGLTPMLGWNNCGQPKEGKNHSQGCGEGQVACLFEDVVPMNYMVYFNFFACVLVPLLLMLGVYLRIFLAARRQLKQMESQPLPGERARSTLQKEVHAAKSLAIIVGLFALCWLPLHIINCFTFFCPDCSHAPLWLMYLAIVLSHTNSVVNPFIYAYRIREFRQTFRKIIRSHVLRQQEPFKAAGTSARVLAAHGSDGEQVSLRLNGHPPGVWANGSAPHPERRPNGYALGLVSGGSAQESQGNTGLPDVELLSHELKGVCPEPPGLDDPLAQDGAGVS

C#CCn1c(=O)c2c(ncn2C)n(C)c1=O [DMPX]
adenosine A2a receptor antagonistic effects (FIG. 4): antagonistic effects
